According to patent US20080261977A1, “Pyrimidine Derivatives as Cannabinoid Receptor Modulators” (priority 2004, published 2008):
pEC50: −log10 of the molar value. Counter-ions that a name gives are not always drawn. Like-named read-outs stand apart in the source and are kept apart here.

Target: T1, human cannabinoid CB2 receptor (Homo sapiens, UniProt P34972)
T1 construct: expressed in transfected cells; host or cells: Saccharomyces cerevisiae strain MMY23 (cassette integrated at the ura3 locus; chimeric Gpa1/Gαi3)
Experiment: Cannabinoid CB2 receptor agonist activity, yeast (Saccharomyces cerevisiae) cells expressing the receptor, FDGlu fluorescence
Assay type: cell-based
Conditions: for Emax: read-out: efficacy (Emax relative to HU210) at the cloned human cannabinoid CB2 receptor
Description: The cannabinoid CB2 receptor agonist activity of the compounds of formula (I) was determined in accordance with the following experimental method.
Yeast (Saccharomyces cerevisiae) cells expressing the human cannabinoid CB2 receptor were generated by integration of an expression cassette into the ura3 chromosomal locus of yeast strain MMY23. This cassette consisted of DNA sequence encoding the human CB2 receptor flanked by the yeast GPD promoter to the 5′ end of CB2 and a yeast transcriptional terminator sequence to the 3′ end of CB2. MMY23 expresses a yeast/mammalian chimeric G-protein alpha subunit in which the C-terminal 5 amino acids of Gpa1 are replaced with the C-terminal 5 amino acids of human Gαi3 (as described in Brown et al. (2000), Yeast 16:11-22). Cells were grown at 30° C. in liquid Synthetic Complete (SC) yeast media (Guthrie and Fink (1991), Methods in Enzymology, Vol. 194) lacking uracil, tryptophan, adenine and leucine to late logarithmic phase (approximately 6 OD600/ml).
Agonists were prepared as 10 mM stocks in DMSO. EC50 values (the concentration required to produce 50% maximal response) were estimated using dilutions of between 3- and 5-fold (BiomekFX, Beckman) into DMSO. Agonist solutions in DMSO (1% final assay volume) were transferred into black, clear bottom, microtitre plates from NUNC (96- or 384-well). Cells were suspended at a density of 0.2 OD600/ml in SC media lacking histidine, uracil, tryptophan, adenine and leucine and supplemented with 10 mM 3-aminotriazole, 0.1M sodium phosphate pH 7.0, and […] fluorescein di-β-D-glucopyranoside (FDGlu). This mixture (50 ul per well for 384-well plates, 200 ul per well for 96-well plates) was added to agonist in the assay plates (Multidrop 384, Labsystems). After incubation at 30° C. for 24 hours, fluorescence resulting from degradation of FDGlu to fluorescein due to exoglucanase, an endogenous yeast enzyme produced during agonist-stimulated cell growth, was determined using a Spectrofluor microtitre plate reader (Tecan; excitation wavelength: 485 nm; emission wavelength: 535 nm). Fluorescence was plotted against compound concentration and iteratively curve fitted using a four parameter fit to generate a concentration effect value. Efficacy (Emax) was calculated from the equation
Emax=Max[compound X]−Min[compound X]/Max[HU210]−Min[HU210]×100%
where Max[compound X] and Min[compound X] are the fitted maximum and minimum respectively from the concentration effect curve for compound X, and Max[HU210] and Min[HU210] are the fitted maximum and minimum respectively from the concentration effect curve for (6aR,10aR)-3-1,1′-Dimethylheptyl)-6a,7,10,10a-tetrahydro-1-hydroxy-6,6-dimethyl-6H-dibenzo[b,d]pyran-9-methanol (HU210; available from Tocris). Equieffective molar ratio (EMR) values were calculated from the equation
Where EC50[compound X] is the EC50 of compound X and EC50[HU210] is the EC50 of HU210.

[1] = yeast agonist assay, read-out: EC50 at the cloned human cannabinoid CB2 receptor

T1 sequence (P34972 whole entry): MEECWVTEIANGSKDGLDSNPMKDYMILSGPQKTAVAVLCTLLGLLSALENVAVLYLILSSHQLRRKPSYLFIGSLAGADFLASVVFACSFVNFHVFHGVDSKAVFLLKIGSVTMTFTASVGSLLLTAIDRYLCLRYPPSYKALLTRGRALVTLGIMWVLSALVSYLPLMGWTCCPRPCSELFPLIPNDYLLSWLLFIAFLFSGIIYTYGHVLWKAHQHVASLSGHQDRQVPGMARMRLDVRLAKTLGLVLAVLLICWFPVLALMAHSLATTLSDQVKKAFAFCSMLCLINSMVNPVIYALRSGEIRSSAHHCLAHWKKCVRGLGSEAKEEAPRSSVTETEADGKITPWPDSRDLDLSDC

For `FC(F)(F)c1nc(Nc2cccc(Cl)c2)ncc1CNCC1CCC1` [Example 18, (3-Chlorophenyl)-{5-[(cyclobutylmethylamino)-methyl]-4-trifluoromethyl-pyrimidin-2-yl}-amine,formate], the pEC50 [1] was over 6.52 and the Emax (yeast agonist assay) was over 50%.

For `CCCNCc1cnc(Nc2cccc(Cl)c2)nc1C(F)(F)F` [Example 19, (3-Chlorophenyl)-(5-propylaminomethyl-4-trifluoromethyl-pyrimidin-2-yl)-amine,formate], the pEC50 [1] was over 6.52 and the Emax (yeast agonist assay) was over 50%.

Compound `CC(C)(C)CNCc1cnc(Nc2cccc(Cl)c2)nc1C(F)(F)F` [Example 20, (3-Chlorophenyl)-{5-[(2,2-dimethylpropylamino)-methyl]-4-trifluoromethyl-pyrimidin-2-yl}-amine] has a pEC50 of over 6.52 and an Emax of over 50%.

`FC(F)(F)c1nc(Nc2cccc(Cl)c2)ncc1CNC1CCC1` [Example 21, (3-Chlorophenyl)-(5-cyclobutylaminomethyl-4-trifluoromethyl-pyrimidin-2-yl)-amine] was tested, and the pEC50 was over 6.52 and the Emax was over 50%.

Compound `CCCCNCc1cnc(Nc2cccc(Cl)c2)nc1C(F)(F)F` [Example 22, (3-Chlorophenyl)-(5-butylaminomethyl-4-trifluoromethyl-pyrimidin-2-yl)-amine,formate] has a pEC50 [1] of over 6.52 and an Emax (yeast agonist assay) of over 50%.

For `FC(F)(F)c1nc(Nc2cccc(Cl)c2)ncc1CNC1CC1` [Example 23, (3-Chlorophenyl)-(5-cyclopropylaminomethyl-4-trifluoromethyl-pyrimidin-2-yl)-amine,formate], the pEC50 [1] was over 6.52 and the Emax (yeast agonist assay) was over 50%.

For `CC(C)CCNCc1cnc(Nc2cccc(Cl)c2)nc1C(F)(F)F` [Example 24, (3-Chlorophenyl)-{5-[(3-methylbutylamino)-methyl]-4-trifluoromethyl-pyrimidin-2-yl}-amine,formate], the pEC50 [1] was over 6.52 and the Emax (yeast agonist assay) was over 50%.

With `FC(F)(F)c1nc(Nc2cccc(Cl)c2)ncc1CNCC1CC1` [Example 25, (3-Chlorophenyl)-{5-[(cyclopropylmethylamino)-methyl]-4-trifluoromethyl-pyrimidin-2-yl}-amine,formate] the pEC50 [1] was over 6.52 and the Emax (yeast agonist assay) was over 50%.

Compound `O=S1(=O)CCC(NCc2cnc(Nc3cccc(Cl)c3)nc2C(F)(F)F)CC1` [Example 26, (3-Chlorophenyl)-{5-[(1,1-dioxo-hexahydro-1l^6-thiopyran-4-ylamino)-methyl]-4-trifluoromethyl-pyrimidin-2-yl}-amine, formate] has an Emax of over 50% and a pEC50 [1] of over 6.52.

`CC(C)CNCc1cnc(Nc2ccc(Cl)cc2Cl)nc1C(F)(F)F` [Example 27, (2,4-Dichlorophenyl)-{5-[(isobutylamino)-methyl]-4-trifluoromethyl-pyrimidin-2yl}-amine] gave a pEC50 of over 6.52 and an Emax of over 50%.

Compound `FC(F)(F)c1nc(Nc2ccc(Cl)cc2Cl)ncc1CNCC1CC1` [Example 28, (2,4-Dichlorophenyl)-{5-[(cyclopropylmethylamino)-methyl]-4-trifluoromethyl-pyrimidin-2-yl}-amine] has a pEC50 of over 6.52 and an Emax of over 50%.

For `FC(F)(F)c1nc(Nc2ccc(Cl)cc2Cl)ncc1CNCC1CCC1` [Example 29, (2,4-Dichlorophenyl)-{5-[(cyclobutylmethylamino)-methyl]-4-trifluoromethyl-pyrimidin-2-yl}-amine,formate], the pEC50 [1] was over 6.52 and the Emax (yeast agonist assay) was over 50%.

With `FC(F)(F)c1nc(Nc2ccc(Cl)cc2Cl)ncc1CNC1CC1` [Example 30, (2,4-Dichlorophenyl)-(5-cyclopropylaminomethyl-4-trifluoromethyl-pyrimidin-2-yl)-amine] the pEC50 was over 6.52 and the Emax was over 50%.

Compound `FC(F)(F)c1nc(Nc2cccc(Cl)c2)ncc1CNCc1cccnc1` [Example 31, (3-Chlorophenyl)-(5-{[(pyridin-3-ylmethyl)-amino]-methyl}-4-trifluoromethyl-pyrimidin-2-yl}-amine,formate] has a pEC50 [1] of over 6.52 and an Emax (yeast agonist assay) of over 50%.

Work on `CC(C)(C)CNCc1cnc(Nc2ccc(Cl)cc2Cl)nc1C(F)(F)F` [Example 32, (2,4-Dichlorophenyl)-{5-[(2,2-dimethylpropylamino)-methyl]-4-trifluoromethyl-pyrimidin-2-yl}-amine] yielded a pEC50 of over 6.52 and an Emax of over 50%.

With `COCCNCc1cnc(Nc2ccc(Cl)cc2Cl)nc1C(F)(F)F` [Example 33, (2,4-Dichlorophenyl)-{5-[(2-methoxy-ethylamino)-methyl]-4-trifluoromethyl-pyrimidin-2-yl}-amine] the pEC50 [1] was over 6.52 and the Emax (yeast agonist assay) was over 50%.

`FC(F)(F)c1nc(Nc2cccc(Cl)c2)ncc1CNC1CCCC1` [Example 34] was tested, and the pEC50 was over 6.52 and the Emax was over 50%.

`FC(F)(F)c1nc(Nc2ccc(Cl)cc2Cl)ncc1CN1CCOCC1` [Example 35, (2,4-Dichlorophenyl)-(5-morpholin-4-ylmethyl-4-trifluoromethyl-pyrimidin-2-yl)-amine] was tested, and the pEC50 was over 6.52 and the Emax was over 50%.

Work on `CC(C)CNCc1cnc(Nc2cccc(F)c2)nc1C(F)(F)F` [Example 36, (3-Fluorophenyl)-{5-[(isobutylamino)-methyl]-4-trifluoromethyl-pyrimidin-2yl}-amine, formate] yielded a pEC50 [1] of over 6.52 and an Emax (yeast agonist assay) of over 50%.

For `Fc1cccc(Nc2ncc(CNCC3CCC3)c(C(F)(F)F)n2)c1` [Example 37, (3-Fluorophenyl)-{5-[(cyclobutylmethylamino)-methyl]-4-trifluoromethyl-pyrimidin-2-yl}-amine,formate], the pEC50 [1] was over 6.52 and the Emax (yeast agonist assay) was over 50%.

`Fc1cccc(Nc2ncc(CNC3CC3)c(C(F)(F)F)n2)c1` [Example 38, (3-Fluorophenyl)-(5-cyclopropylaminomethyl-4-trifluoromethyl-pyrimidin-2-yl)-amine] gave a pEC50 [1] of over 6.52 and an Emax (yeast agonist assay) of over 50%.

`FC(F)(F)c1nc(Nc2cccc(Cl)c2)ncc1CN1CCCCC1` [Example 39, (3-Chlorophenyl)-(5-piperidin-1-ylmethyl-4-trifluoromethyl-pyrimidin-2-yl)-amine,formate] was tested, and the Emax was over 50% and the pEC50 [1] was 6.00 to 6.52.

In the case of `FC(F)(F)c1nc(Nc2cccc(Cl)c2)ncc1CN1CCCC1` [Example 40, (3-Chlorophenyl)-(5-pyrrolidin-1-ylmethyl-4-trifluoromethyl-pyrimidin-2-yl)-amine, formate], the Emax was over 50% and the pEC50 [1] was 6.00 to 6.52.

Compound `Fc1ccc(CNCc2cnc(Nc3cccc(Cl)c3)nc2C(F)(F)F)cc1` [Example 41, (3-Chlorophenyl)-{5-[(4-fluorobenzylamino)-methyl]-4-trifluoromethyl-pyrimidin-2-yl)-amine,formate] has an Emax of over 50% and a pEC50 [1] of 6.00 to 6.52.

Work on `CN(Cc1cnc(Nc2cccc(Cl)c2)nc1C(F)(F)F)CC1CCOCC1` [Example 42, (3-Chlorophenyl)-(5-{[methyl-(tetrahydro-pyran-4-ylmethyl)-amino]-methyl}-4-trifluoromethyl-pyrimidin-2-yl)-amine] yielded an Emax of over 50% and a pEC50 [1] of 6.00 to 6.52.

Compound `FC(F)(F)c1nc(Nc2cccc(Cl)c2)ncc1CNC1CCCCC1` [Example 43, (3-Chlorophenyl)-(5-cyclohexylaminomethyl-4-trifluoromethyl-pyrimidin-2-yl)-amine] has a pEC50 of 6.00 to 6.52 and an Emax of over 50%.

With `CN(C)Cc1cnc(Nc2cccc(Cl)c2)nc1C(F)(F)F` [Example 44, (3-Chlorophenyl)-(5-dimethylaminomethyl-4-trifluoromethyl-pyrimidin-2-yl)-amine, formate] the Emax was over 50% and the pEC50 [1] was 6.00 to 6.52.

For `FC(F)(F)c1nc(Nc2cccc(Cl)c2)ncc1CNCCc1ccccc1` [Example 45, (3-Chlorophenyl)-[5-(phenethylamino-methyl)-4-trifluoromethyl-pyrimidin-2-yl]-amine, formate], the Emax was over 50% and the pEC50 [1] was 6.00 to 6.52.

`FC(F)(F)c1nc(Nc2cccc(Cl)c2)ncc1CNCCCc1ccccc1` [Example 46, (3-Chlorophenyl)-[5-(phenpropylamino-methyl)-4-trifluoromethyl-pyrimidin-2-yl]-amine, formate] gave an Emax of over 50% and a pEC50 [1] of 6.00 to 6.52.

With `CCCCN(C)Cc1cnc(Nc2cccc(Cl)c2)nc1C(F)(F)F` [Example 47, {5-[(Butyl-methyl-amino)-methyl]-4-trifluoromethyl-pyrimidin-2-yl}-(3-chlorophenyl)-amine] the Emax was over 50% and the pEC50 [1] was 6.00 to 6.52.
